According to ChEMBL document CHEMBL1201862, “PubChem BioAssay data set” (2004):
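The compound was tested at five concentrations on cells cultured in 96-well plates, with a 48-hour exposure period. Here, GI50 denotes the concentration required for 50% inhibition of growth.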 The source made the active and inactive calls. Cut-off read from the data, not from the text of the source: active = GI50 up to about 1.1 µM and inactive = higher.

What was measured:
Experiment in all cases: NCI tumour cell line growth inhibition, 48 h
[1] = system: DLD-1
[2] = system: DMS-114
[3] = system: DMS-273
[4] = system: HOP-18
[5] = system: KM-20L2
[6] = system: M19-MEL
[7] = system: RXF 631
[8] = system: SNB-78
[9] = system: XF498

Row | Structure (SMILES) | GI50 [1] | GI50 [2] | GI50 [3] | GI50 [4] | GI50 [5] | GI50 [6] | GI50 [7] | GI50 [8] | GI50 [9]
1 | CC1NOC(=O)C1/N=N/c1ccc(Cl)cc1Cl (stereo unspecified) | 33.9 µM (inactive) | 24.2 µM (inactive) | 20.9 µM (inactive) | 18.5 µM (inactive) | 30.6 µM (inactive) | 27.2 µM (inactive) | 38.2 µM (inactive) | 26.3 µM (inactive) | 23.1 µM (inactive)
2 | O=C(CC(=O)Nc1cccc(Cl)c1)NNCC(=O)Nc1nnc(-c2ccccc2)s1 | 58.6 µM (inactive) | 24.4 µM (inactive) | 38.4 µM (inactive) | 3.62 µM (inactive) | > 100 µM (inactive) | > 100 µM (inactive) | > 100 µM (inactive) | 97.9 µM (inactive) | 17.7 µM (inactive)
3 | CCN(CC)CC(C(=O)Nc1c(C)cccc1C)/C(C)=N\NC(=O)C[N+](C)(C)C (stereo unspecified) | > 100 µM (inactive) | > 100 µM (inactive) | > 100 µM (inactive) | – | > 100 µM (inactive) | > 100 µM (inactive) | – | > 100 µM (inactive) | > 100 µM (inactive)
4 | O=C(CO[N+](=O)[O-])OCC(=O)c1ccccc1 | > 100 µM (inactive) | – | > 100 µM (inactive) | – | > 100 µM (inactive) | > 100 µM (inactive) | > 100 µM (inactive) | – | –
5 | CCOC(=O)C1S/C(=N\c2ccc(Cl)cc2)N=C1C (stereo unspecified) | 14.1 µM (inactive) | 23.8 µM (inactive) | – | 23.3 µM (inactive) | 19.2 µM (inactive) | 17.3 µM (inactive) | – | 29.2 µM (inactive) | 20 µM (inactive)
6 | O=C1Nc2cc(Cl)ccc2N=CC1NC(=O)C(c1ccccc1)c1ccccc1Cl (stereo unspecified) | > 100 µM (inactive) | > 100 µM (inactive) | > 100 µM (inactive) | 27.5 µM (inactive) | > 100 µM (inactive) | > 100 µM (inactive) | > 100 µM (inactive) | > 100 µM (inactive) | –
7 | C/C(=N\NC(N)=O)C(CN1CCCCC1)C(c1ccccc1)c1c(O)c2ccccc2oc1=O (stereo unspecified) | > 100 µM (inactive) | > 100 µM (inactive) | > 100 µM (inactive) | > 100 µM (inactive) | > 100 µM (inactive) | > 100 µM (inactive) | > 100 µM (inactive) | > 100 µM (inactive) | –
8 | Cc1cc(=O)oc2cc(OCc3nc4ccccc4c(=O)n3-c3ccccc3)ccc12 | > 100 µM (inactive) | > 100 µM (inactive) | > 100 µM (inactive) | > 100 µM (inactive) | > 100 µM (inactive) | > 100 µM (inactive) | > 100 µM (inactive) | – | –
9 | CN(C)CCCSc1c2ccccc2nc2cc(NCC(=O)Nc3ccccc3-c3ccccc3NC(=O)CNc3ccc4c(SCCCN(C)C)c5ccccc5nc4c3)ccc12 | > 100 µM (inactive) | > 100 µM (inactive) | > 100 µM (inactive) | > 100 µM (inactive) | > 100 µM (inactive) | 49.7 µM (inactive) | – | > 100 µM (inactive) | 71.8 µM (inactive)
10 | Clc1ccc(-n2nnc(C3=NCCCN3)c2-c2ccccc2)cc1 | > 100 µM (inactive) | > 100 µM (inactive) | > 100 µM (inactive) | > 100 µM (inactive) | > 100 µM (inactive) | > 100 µM (inactive) | – | > 100 µM (inactive) | > 100 µM (inactive)
11 | CCNC(=O)C#CC(=O)NCC | > 46.1 µM (inactive) | > 72.3 µM (inactive) | 17.8 µM (inactive) | > 100 µM (inactive) | > 100 µM (inactive) | > 100 µM (inactive) | > 100 µM (inactive) | > 10 µM (inactive) | > 100 µM (inactive)
12 | Cc1ccc(C)c(NC(=O)c2cc(-c3ccc([N+](=O)[O-])cc3)nc(N)n2)c1 | > 100 µM (inactive) | > 100 µM (inactive) | > 100 µM (inactive) | > 100 µM (inactive) | > 100 µM (inactive) | > 100 µM (inactive) | – | – | > 100 µM (inactive)
13 | COc1ccc2c(CCNS(=O)(=O)c3ccccc3)c(C(C)=O)[nH]c2c1[N+](=O)[O-] | – | – | > 100 µM (inactive) | – | > 100 µM (inactive) | – | 41.4 µM (inactive) | 48.5 µM (inactive) | –
14 | Cn1c(=O)c2[nH]cnc2n(CC(N)=O)c1=O | > 100 µM (inactive) | > 100 µM (inactive) | > 100 µM (inactive) | – | – | > 100 µM (inactive) | – | > 100 µM (inactive) | > 100 µM (inactive)
15 | CN1CCN(CCNc2ccc(CO)c3sc4ccccc4c(=O)c23)CC1 | 11.7 µM (inactive) | 9.57 µM (inactive) | 3.21 µM (inactive) | – | 4.21 µM (inactive) | 12.2 µM (inactive) | – | – | –
16 | Nn1c(S)nnc1NNC(=O)C(=O)Nc1cc(Cl)c(Cl)cc1Cl | > 100 µM (inactive) | > 100 µM (inactive) | – | 71.1 µM (inactive) | > 100 µM (inactive) | > 100 µM (inactive) | – | > 100 µM (inactive) | 90.4 µM (inactive)
17 | [N-]=[N+]=CC(=O)C1(C(=O)C=[N+]=[N-])CC1 | – | > 100 µM (inactive) | > 100 µM (inactive) | > 100 µM (inactive) | > 100 µM (inactive) | > 100 µM (inactive) | – | > 100 µM (inactive) | > 100 µM (inactive)
18 | O=C(Cc1ccccc1)N/N=C(/c1nc2ccc([N+](=O)[O-])cc2nc1O)C(O)c1ccco1 (stereo unspecified) | > 100 µM (inactive) | 46.8 µM (inactive) | – | > 100 µM (inactive) | – | > 100 µM (inactive) | – | > 100 µM (inactive) | > 100 µM (inactive)
19 | C=Cc1cc(OC)c2c(c1)c(=O)oc1c2cc(OC)c2c(O)ccc(C3OC(C)C(O)C(C)(O)C3O)c21 (stereo unspecified) | 0.0671 µM (active) | 0.0225 µM (active) | 0.0545 µM (active) | 0.053 µM (active) | 0.041 µM (active) | 0.0614 µM (active) | – | – | 0.0252 µM (active)
20 | COc1cccc(-c2cc(C(=O)Nc3ccc(Cl)cc3)nc(N)n2)c1 | 69.5 µM (inactive) | 30.6 µM (inactive) | 85.7 µM (inactive) | > 100 µM (inactive) | 61.4 µM (inactive) | 45.7 µM (inactive) | – | > 100 µM (inactive) | 93.8 µM (inactive)
21 | CCOc1ccc(NC(=O)/C(Cc2nc3ccccc3nc2O)=N\O)cc1 | > 100 µM (inactive) | > 100 µM (inactive) | > 100 µM (inactive) | – | > 100 µM (inactive) | > 100 µM (inactive) | – | > 100 µM (inactive) | –
22 | C[C@]12CCC(=O)C=C1CC[C@@H]1[C@@H]2CC[C@]2(C)C(=O)NC(=O)C[C@@H]12 | > 100 µM (inactive) | > 100 µM (inactive) | > 100 µM (inactive) | > 100 µM (inactive) | > 100 µM (inactive) | > 100 µM (inactive) | > 100 µM (inactive) | > 100 µM (inactive) | > 100 µM (inactive)
23 | O=C(Nc1ccc(Cl)c(Cl)c1)C(=O)Nn1c(S)nc2ccccc2c1=O | > 100 µM (inactive) | > 100 µM (inactive) | > 100 µM (inactive) | > 100 µM (inactive) | > 100 µM (inactive) | > 100 µM (inactive) | – | > 100 µM (inactive) | > 100 µM (inactive)
24 | CC(C)C(Nc1c2ccccc2[n+]([O-])c2ccccc12)C(=O)O (stereo unspecified) | 37.7 µM (inactive) | 36.2 µM (inactive) | 61.9 µM (inactive) | 19.4 µM (inactive) | > 100 µM (inactive) | 88.5 µM (inactive) | > 100 µM (inactive) | > 100 µM (inactive) | –
25 | CCOC(=O)C(=Cc1ccc(C(=O)OC)cc1)C(=O)OCC | 2.12 µM (inactive) | 1.66 µM (inactive) | 1.71 µM (inactive) | 3.49 µM (inactive) | 0.845 µM (active) | 2.75 µM (inactive) | – | – | –
26 | CC(C)(C)c1cc(Oc2ccc(C#N)c(C#N)c2)cc(C(C)(C)C)c1 | > 100 µM (inactive) | 42.1 µM (inactive) | 14.1 µM (inactive) | > 100 µM (inactive) | > 100 µM (inactive) | > 100 µM (inactive) | 31 µM (inactive) | > 100 µM (inactive) | > 100 µM (inactive)
27 | N/N=C(\CC1OC(=O)c2ccccc21)c1ccco1 (stereo unspecified) | > 100 µM (inactive) | > 100 µM (inactive) | > 100 µM (inactive) | < 0.01 µM (active) | > 100 µM (inactive) | > 100 µM (inactive) | – | – | –
28 | C/C(=N\NS(=O)(=O)c1ccc(C)cc1)C(CN1CCOCC1)C(c1ccccc1)c1c(O)c2ccccc2oc1=O (stereo unspecified) | > 100 µM (inactive) | – | – | > 100 µM (inactive) | > 100 µM (inactive) | 99.5 µM (inactive) | > 100 µM (inactive) | > 100 µM (inactive) | > 100 µM (inactive)
